Consider 3 compounds from paper PMC8700683, “A Novel Neutral and Mesophilic β-Glucosidase from Coral Microorganisms for Efficient Preparation of Gentiooligosaccharides” (Foods, 2021).

Experiment [1] deals with T1, Blg163.
T1 construct: full-length ORF 1341 bp, 447 residues (Met1 to Ser447), GH1; pEASY-E1 vector, His-tag (Ni-NTA) apparently kept; expressed in E. coli BL21(DE3) pLysS; best hits Rhodobacteraceae bacterium NVK46632.1 (homologue)
The experiment in a line: hydrolysis kinetics, […] substrate. Conditions: citrate buffer, pH 7.0, 30 °C, 5 min. Type of experiment: biochemical, uncultured bacterium (coral microbial metagenome).

Experiment [2] has as its system T1, Blg163. The experiment in a line: p-nitrophenol release, absorbance at […] nm. Type of experiment: biochemical, uncultured bacterium (coral microbial metagenome). Conditions: citrate buffer, pH 7.0, 30 °C, 5 min.

Regarding `OC[C@H]1O[C@@H](O[C@H]2[C@H](O)[C@@H](O)C(O)O[C@@H]2CO)[C@H](O)[C@@H](O)[C@@H]1O` (stereo partly drawn) [cellobiose], the Km with Blg163 [1] turned out to be 450 µM.

Consider `OC[C@H]1O[C@@H](OC[C@H]2OC(O)[C@H](O)[C@@H](O)[C@@H]2O)[C@H](O)[C@@H](O)[C@@H]1O` (stereo partly drawn) [gentiobiose], for which the Km in the experiment with Blg163 [1] was 720 µM. On to `O=[N+]([O-])c1ccc(O[C@@H]2O[C@H](CO)[C@@H](O)[C@H](O)[C@H]2O)cc1` [p-Nitrophenyl-β-D-glucopyranoside], for which the Km with Blg163 [2] stood at 320 µM.
